Results reported in patent US12084430B2, “Tricyclic urea compounds as JAK2 V617F inhibitors” (Incyte Corporation, priority 2022, dated 2024).
pIC50: −log10 of the molar value.

How the values were obtained:
[1] = test system: pSTAT5 signaling in SET-2 cells in whole blood; test: pSTAT5 SET-2 whole blood MSD assay; format: cell-based; conditions: Homo sapiens, pSTAT5, 2 hour, read-out: SET2 WB IC50
Method: Example F. pSTAT5 SET-2 Whole Blood MSD Assay
SET-2 cells shipped from ABS, RPMI1640 medium, Fetal Bovine Serum from Gibco, Phospho-STAT5a,b Whole Cell Lysate Kit from Mesoscale, Retronectin (Recombinant Human Fibronectin Fragment) from TaKaRa, 96 well cell culture plate flat bottom from Corning, lysis buffer from Cell Signaling Technology, and sterile PBS from Gibco. Whole Blood from by BioIVT.
SET-2 cells were cultured in RPMI media with 20% FBS at 37° C. humidified incubator supplied with 5% CO2. On the day of the assay, 40 uL per well of diluted retronectin working solution was added to sterile 96-well clear flat bottom tissue culture plates (1:200 dilution of retronectin in sterile PBS) and incubated at 37 C for 1 hour. After 1 hour, the retronectin working solution was aspirated and SET-2 cells were seeded at 100,000/well in RPMI+20% FBS. Cells were incubated overnight at 37° C. and 5% CO2. The next day, the medium was removed and 40 μL of diluted compounds in serum-free RPMI and whole blood was added to the cells for a 2 hour incubation at 37° C. and 5% CO2. The compound starting concentration is 20 μM and 2.5 fold serial diluted down to 0.21 nM. The whole blood and compound mixture was then aspirated off using the BlueCat plate washer and washed 1× with PBS. Cells were lysed by adding 40 μL of 3× complete lysis buffer and shaken at room temperature for 45-60 minutes (complete lysis buffer consists of Cell Signaling Technology lysis buffer diluted to 3× and supplemented with Mesoscale's protease inhibitor, phosphatase I inhibitor, and phosphatase II inhibitor). The pSTAT5 MSD plates were blocked by adding 150 μL of Blocker A solution per well to the MSD plates and incubated at room temperature with shaking at 400 rpm for one hour or longer. After blocking, plates were washed 3× with 300 μL/well of IX Tris Wash Buffer. After lysis, added 25 μL per well of lysed sample was added to MSD plate and incubated with shaking at 4° C. wrapped in foil overnight. The next day, plates were washed again and 25 μL/well of diluted 1× Detection Antibody Solution, wrapped in foil, and incubated at room temperature with shaking at 400 rpm for 1 hour. Plates were then washed again and lastly, 150 μL/well of 1× Read Buffer T was added to all wells. Plates were analyzed on MSD Discovery within 5 minutes. […] Data analysis was performed in GraphPad Prism using a 4-parameter fit and data was reported as Average±SD.

[2] = test system: STAT5 (Tyr694) phosphorylation in SET-2 cells; test: STAT5 (Tyr694) phosphorylation cell based assay; conditions: Homo sapiens, pSTAT5, 2 hours, read-out: SET2 IC50
How it was run: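 SET-2 cells (7×10^6 cells/mL, RPMI 10% FBS, 0.5% DMSO) treated with compound 2 h at 37 °C, then lysed 90 min at RT. Phospho-STAT5 (Tyr694) detected by HTRF sandwich antibodies after 24 h at RT, 665/620 ratio. IC50 from percent control activity versus log concentration, DMSO and high-concentration control compound as references.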

[3] = test system: FLT3; test: FLT3 enzymatic assay; format: biochemical
How it was run: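 Kinase reaction at room temperature in HEPES 50 mM pH 7.0 with 10 mM MgCl2, 1 mM DTT: 0.011 nM FLT3, 1 mM ATP, 500 nM biotinylated TK substrate, 0.5% DMSO. After 60 min, HTRF read as 665/620 nm ratio; IC50 from fit of percent control activity versus log concentration.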

Row | SMILES | pIC50 [1] | pIC50 [2] | Selectivity FLT3/JH2 V617F [3]
1 | [2H]C([2H])([2H])n1ncc2cc(-c3c(-c4cn(C([2H])(C([2H])([2H])[2H])C([2H])([2H])[2H])nc4F)[nH]c4ncc5c(c34)n([C@@H]3CC[C@@H](NC(=O)OC)C3)c(=O)n5C([2H])([2H])[2H])ccc21 [Example 21, Methyl ((1R,3R)-3-(7-(3-fluoro-1-(propan-2-yl-d7)-1H-pyrazol-4-yl)-3-(methyl-d3)-8-(1-(methyl-d3)-1H-indazol-5-yl)-2-oxo-3,6-dihydroimidazo[4,5-d]pyrrolo[2,3-b]pyridin-1(2H)-yl)cyclopentyl)carbamate] | ≥ 5.60 | ≥ 6.52 | ****** (selectivity of >12500-fold)
2 | [2H]C([2H])([2H])n1cc(-c2[nH]c3ncc4c(c3c2-c2ccc3c(cnn3CC(F)F)c2)n([C@@H]2CC[C@@H](NC(=O)OC)C2)c(=O)n4C([2H])([2H])[2H])c(F)n1 [Example 14, Methyl ((1R,3R)-3-(8-(1-(2,2-difluoroethyl)-1H-indazol-5-yl)-7-(3-fluoro-1-(methyl-d3)-1H-pyrazol-4-yl)-3-(methyl-d3)-2-oxo-3,6-dihydroimidazo[4,5-d]pyrrolo[2,3-b]pyridin-1(2H)-yl)cyclopentyl)carbamate] | ≥ 5.60 | ≥ 6.52 | ****** (selectivity of >12500-fold)
